Laboratory results published in paper PMC7363035 (ACS infectious diseases, 2020).
Read-outs that look alike come from different tables or passages of the source. Marks after values point to notes of the source that are not given here.

Tests used:
[1] = cited from earlier work
[2] = Mouse pharmacokinetics after a single oral dose; assay type: in vivo
[3] = cited from earlier work; remark: listed apart in the source
[4] = Log D in octanol/PBS pH 7.4; assay type: physicochemical
P. berghei = conditions: cited from earlier work
[5] = human liver microsomes; cited from earlier work
Solubility in PBS pH 7.4 = assay type: physicochemical
Mouse liver microsome = assay type: in vitro ADME; conditions: mouse liver microsomes; data generated via Medicines for Malaria Venture
[6] = male, CD-1, mouse, plasma, po, 50 mg/kg
[7] = single dose of 50 mg/kg by oral gavage, male CD-1 mice

Row | SMILES | Log D in octanol/PBS; pH 7.4 [1] | AUC(0-t) [2, 6] [ng·h/mL] | Tmax [2, 6] [h] | Solubility in PBS pH 7.4 [3] | logD [4] | effective single dose in the P. berghei model (P. berghei; single dose) [mg/kg] | HLM CLint [5] [µL/min/mg] | HLM T1/2 [5] [h] | cures (P. berghei; Experiment 1, PO 6 mg/kg/day (4 days), female Swiss Webster mice, cured = parasitemia undetectable at day 30) | Solubility in PBS pH 7.4 (Solubility in PBS pH 7.4) [μM] | MLM CLint (Mouse liver microsome) [µL/min/mg] | MLM T1/2 (Mouse liver microsome) [min] | fold lower systemic exposure than 8c or 8n ([2]; mouse PK study with oral dosing) | AUClast [2, 7] [ng·h/mL] | Cmax [2, 7] [ng/mL] | Tmax [2, 7] [h] | Log D in octanol/PBS; pH 7.4 ([4]; data generated via Medicines for Malaria Venture)
1 | c1cc([C@H]2CC[C@]3(CC2)OO[C@]2(O3)C3CC4CC(C3)CC2C4)ccc1OCCN1CCOCC1 [OZ439, artefenomel] | 5.5 | 52600 ± 4810 | 2 | 0.181^b μM | 5.81 | 20 | – | – | – | – | – | – | – | – | – | – | –
2 | CC(C)(N)CNC(=O)C[C@H]1CC[C@]2(CC1)OO[C@]1(O2)C2CC3CC(C2)CC1C3 [OZ277, arterolane] | – | – | – | 504 μM | – | – | <7 | >1 | 4/5 | – | – | – | – | – | – | – | –
3 | O=C(O[C@@H]1CCC[C@]2(C1)OOC1(O2)C2CC3CC(C2)CC1C3)N1CCNCC1 (stereo partly drawn) [8e, (1R,3”R)-Dispiro[adamantane-2,3’-[1,2,4]trioxolane-5’,1”-cyclohexan]-3”-yl piperazine-1-carboxylate] | – | – | – | – | – | – | – | – | – | 157.0 | 321 | 4.3 | ~ three-fold | 1070 ± 127 | 223 ± 25 | 2 | 3.25
